Assay: xn = mol fraction of the nth substance listed

CN(C)c1ccccc1 + CCCCCO
303.15 K, 101 kPa
Settings	viscosity [mPa·s]
x1 = 0.0799	2.75
x1 = 0.121	2.704
x1 = 0.2034	2.605
x1 = 0.2784	2.506
x1 = 0.3584	2.392
x1 = 0.4284	2.284
x1 = 0.5047	2.158
x1 = 0.5722	2.039
x1 = 0.6406	1.913
x1 = 0.7103	1.777
x1 = 0.781	1.635
x1 = 0.8168	1.562
x1 = 0.9058	1.374

CC1CCC(O)CC1 (configuration not stated) + c1ccccc1
293.15 K, 101 kPa
Settings	viscosity [mPa·s]
x2 = 0.33	5.3
x2 = 0.5	2.4
x2 = 0.6	1.8
x2 = 0.667	1.6
x2 = 0.75	1.4
x2 = 0.8	1.3

CC(=O)CC(C)=O + CCCCCO
298.15 K, 101 kPa
Settings	viscosity [mPa·s]
x1 = 0.1	2.509
x1 = 0.2	1.944
x1 = 0.3	1.55
x1 = 0.4	1.263
x1 = 0.5	1.05
x1 = 0.6	0.897
x1 = 0.7	0.796
x1 = 0.8	0.743
x1 = 0.9	0.722

CCCCOC(=O)c1ccccc1C(=O)OCCCC + CCCCO
303.15 K, 101.33 kPa
Settings	viscosity [mPa·s]
x1 = 0.1016	2.585
x1 = 0.1991	3.095
x1 = 0.2997	3.757
x1 = 0.4016	4.553
x1 = 0.5004	5.431
x1 = 0.5969	6.463
x1 = 0.6966	7.645
x1 = 0.8044	9.216
x1 = 0.8662	10.27

C=CC#N + CCCCCCCO
viscosity [mPa·s], 101.33 kPa
Settings	x1 = 0.1047	x1 = 0.206	x1 = 0.3057	x1 = 0.4142	x1 = 0.5106	x1 = 0.6206	x1 = 0.7044	x1 = 0.8027	x1 = 0.9033
298.15 K	4.015	2.967	2.212	1.627	1.238	0.891	0.705	0.54	0.425
303.15 K	3.469	2.587	1.958	1.441	–	0.815	0.652	0.508	0.403
308.15 K	3	2.273	1.73	1.296	1.013	0.75	0.605	0.478	0.383

CC(C)(C)Br + CC(C)CO
viscosity [mPa·s], 101.3 kPa
Settings	x1 = 0.1028	x1 = 0.2047	x1 = 0.3013	x1 = 0.4041	x1 = 0.5068	x1 = 0.6029	x1 = 0.7033	x1 = 0.8031	x1 = 0.905
298.15 K	2.582	2.021	1.64	1.351	1.138	0.9943	0.8866	0.8146	0.757
313.15 K	1.718	1.405	1.168	0.9825	0.8486	0.7553	0.688	0.6382	0.6044

CC(CC(C)(C)C)CC(C)(C)C + Cc1cc(C)cc(C)c1
viscosity [mPa·s], 102 kPa
Settings	x2 = 0.1002	x2 = 0.2001	x2 = 0.3009	x2 = 0.4006	x2 = 0.4977	x2 = 0.6	x2 = 0.7	x2 = 0.8001	x2 = 0.9001
293.15 K	1.22	1.13	1.05	0.972	0.908	0.848	0.805	0.761	0.727
303.15 K	1.03	0.96	0.893	0.837	0.789	0.738	0.697	0.658	0.63
313.15 K	0.892	0.831	0.782	0.732	0.691	0.65	0.614	0.58	0.555
323.15 K	0.781	0.738	0.693	0.649	0.613	0.578	0.546	0.517	0.494
